Molecular target: Furin (Homo sapiens, UniProt P09958)
Sequence (P09958 whole entry): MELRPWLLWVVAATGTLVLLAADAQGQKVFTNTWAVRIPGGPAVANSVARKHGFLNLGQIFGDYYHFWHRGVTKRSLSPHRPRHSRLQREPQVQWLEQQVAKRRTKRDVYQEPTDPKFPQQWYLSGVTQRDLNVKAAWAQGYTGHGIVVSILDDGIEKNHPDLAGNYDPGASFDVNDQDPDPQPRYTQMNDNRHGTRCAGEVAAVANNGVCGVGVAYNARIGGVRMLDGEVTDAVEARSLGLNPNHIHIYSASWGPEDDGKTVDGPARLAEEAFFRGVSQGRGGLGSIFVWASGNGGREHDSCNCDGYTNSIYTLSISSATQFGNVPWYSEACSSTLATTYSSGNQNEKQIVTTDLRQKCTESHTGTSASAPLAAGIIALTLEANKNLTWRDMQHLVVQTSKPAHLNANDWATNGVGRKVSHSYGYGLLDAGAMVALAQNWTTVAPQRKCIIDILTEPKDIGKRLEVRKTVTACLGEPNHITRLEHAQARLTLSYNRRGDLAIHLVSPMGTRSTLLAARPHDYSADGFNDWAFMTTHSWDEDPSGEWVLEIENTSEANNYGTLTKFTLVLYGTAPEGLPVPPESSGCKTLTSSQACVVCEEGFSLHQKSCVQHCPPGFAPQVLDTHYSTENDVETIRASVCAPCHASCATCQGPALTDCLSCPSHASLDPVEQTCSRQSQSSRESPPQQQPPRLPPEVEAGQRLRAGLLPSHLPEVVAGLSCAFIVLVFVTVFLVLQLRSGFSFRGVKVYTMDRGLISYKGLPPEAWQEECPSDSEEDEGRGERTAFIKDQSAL

C[C@@H](O)[C@H](N)C(=O)N1CCC[C@H]1C(=O)N[C@@H](CCCNC(=N)N)C(=O)N[C@@H](CCC(=O)O)C(=O)N[C@@H](CCCNC(=N)N)C(=O)N[C@@H](CCCNC(=N)N)C(=O)N[C@@H](CCCNC(=N)N)C(=O)N[C@@H](CCCCN)C(=O)N[C@@H](CCCCN)C(=O)N[C@@H](CCCNC(=N)N)C(=O)NCC(=O)O and C[C@@H](O)[C@H](N)C(=O)N1CCC[C@H]1C(=O)N[C@@H](CCCNC(=N)N)C(=O)N[C@H](CCC(=O)O)C(=O)N[C@@H](CCCNC(=N)N)C(=O)N[C@@H](CCCNC(=N)N)C(=O)N[C@@H](CCCNC(=N)N)C(=O)N[C@@H](CCCCN)C(=O)N[C@@H](CCCCN)C(=O)N[C@@H](CCCNC(=N)N)C(=O)NCC(=O)O cannot be ordered by Ki: greater than 100 nM for the first, greater than 100 nM for the second.

First: CSCC[C@H](NC(=O)[C@H](CCCNC(=N)N)NC(=O)[C@H](CCCCN)NC(=O)[C@H](CCCCN)NC(=O)[C@H](CCCNC(=N)N)NC(=O)[C@H](CCCNC(=N)N)NC(=O)[C@H](CCCNC(=N)N)NC(=O)[C@H](C)NC(=O)[C@H](CCCNC(=N)N)NC(=O)[C@@H]1CCCN1C(=O)[C@@H](N)[C@@H](C)O)C(=O)O
Second: CCCC[C@H](NC(=O)[C@H](CCCNC(=N)N)NC(=O)[C@H](CCCCN)NC(=O)[C@H](CCCCN)NC(=O)[C@H](CCCNC(=N)N)NC(=O)[C@H](CCCNC(=N)N)NC(=O)[C@H](CCCNC(=N)N)NC(=O)[C@H](C)NC(=O)[C@H](CCCNC(=N)N)NC(=O)[C@@H]1CCCN1C(=O)[C@@H](N)[C@@H](C)O)C(=O)O
The Ki of the first is higher: greater than 100 nM for the first, 81 nM for the second. The second binds more tightly here.

Compared with CSC[C@H](NC(=O)[C@H](CCCN=C(N)N)NC(=O)[C@H](CCCCN)NC(=O)[C@H](CCCCN)NC(=O)[C@H](CCCN=C(N)N)NC(=O)[C@H](CCCN=C(N)N)NC(=O)[C@H](CCCN=C(N)N)NC(=O)[C@H](C)NC(=O)[C@H](CCCN=C(N)N)NC(=O)[C@@H]1CCCN1C(=O)[C@@H](N)[C@@H](C)O)C(=O)O, CC(C)C[C@H](NC(=O)[C@H](CCCN=C(N)N)NC(=O)[C@H](CCCCN)NC(=O)[C@H](CCCCN)NC(=O)[C@H](CCCN=C(N)N)NC(=O)[C@H](CCCN=C(N)N)NC(=O)[C@H](CCCN=C(N)N)NC(=O)[C@H](C)NC(=O)[C@H](CCCN=C(N)N)NC(=O)[C@@H]1CCCN1C(=O)[C@@H](N)[C@@H](C)O)C(=O)O is higher in Ki: 65 nM for the first, greater than 100 nM for the second. The first binds more tightly here.

CSCC[C@H](NC(=O)[C@H](CCCN=C(N)N)NC(=O)[C@H](CCC(N)=O)NC(=O)[C@@H]1CCCN1C(=O)[C@@H](N)[C@@H](C)O)C(=O)N[C@@H](CCCN=C(N)N)C(=O)N[C@@H](CCCN=C(N)N)C(=O)N[C@@H](CCCN=C(N)N)C(=O)N[C@@H](CCCCN)C(=O)N[C@@H](CCCCN)C(=O)N[C@@H](CCCNC(=N)N)C(=O)NCC(=O)O and C[C@@H](O)[C@H](N)C(=O)N1CCC[C@H]1C(=O)N[C@@H](CCC(N)=O)C(=O)N[C@@H](CCCN=C(N)N)C(=O)N[C@H](CCC(=O)O)C(=O)N[C@@H](CCCN=C(N)N)C(=O)N[C@@H](CCCN=C(N)N)C(=O)N[C@@H](CCCN=C(N)N)C(=O)N[C@@H](CCCCN)C(=O)N[C@@H](CCCCN)C(=O)N[C@@H](CCCNC(=N)N)C(=O)NCC(=O)O cannot be ordered by Ki: greater than 100 nM for the first, greater than 100 nM for the second.

C[C@@H](O)[C@H](N)C(=O)N1CCC[C@H]1C(=O)N[C@@H](CCC(N)=O)C(=O)N[C@@H](CCCNC(=N)N)C(=O)NCCC(=O)N[C@@H](CCCN=C(N)N)C(=O)N[C@@H](CCCN=C(N)N)C(=O)N[C@@H](CCCN=C(N)N)C(=O)N[C@@H](CCCCN)C(=O)N[C@@H](CCCCN)C(=O)N[C@@H](CCCNC(=N)N)C(=O)NCC(=O)O and C[C@@H](O)[C@H](N)C(=O)N1CCC[C@H]1C(=O)N[C@@H](CCC(N)=O)C(=O)N[C@@H](CCCN=C(N)N)C(=O)N[C@H](CCCCN)C(=O)N[C@@H](CCCN=C(N)N)C(=O)N[C@@H](CCCN=C(N)N)C(=O)N[C@@H](CCCN=C(N)N)C(=O)N[C@@H](CCCCN)C(=O)N[C@@H](CCCCN)C(=O)N[C@@H](CCCNC(=N)N)C(=O)NCC(=O)O cannot be ordered by Ki: greater than 100 nM for the first, greater than 100 nM for the second.

C[C@@H](O)[C@H](N)C(=O)N1CCC[C@H]1C(=O)N[C@@H](CCC(N)=O)C(=O)N[C@@H](CCCNC(=N)N)C(=O)N[C@@H](CCCNC(N)=O)C(=O)N[C@@H](CCCNC(=N)N)C(=O)N[C@@H](CCCNC(=N)N)C(=O)N[C@@H](CCCNC(=N)N)C(=O)N[C@@H](CCCCN)C(=O)N[C@@H](CCCCN)C(=O)N[C@@H](CCCNC(=N)N)C(=O)NCC(=O)O and C[C@@H](O)[C@H](N)C(=O)N1CCC[C@H]1C(=O)N[C@@H](CCC(N)=O)C(=O)N[C@@H](CCCNC(=N)N)C(=O)N[C@@H](CCC(=O)O)C(=O)N[C@@H](CCCNC(=N)N)C(=O)N[C@@H](CCCNC(=N)N)C(=O)N[C@@H](CCCNC(=N)N)C(=O)N[C@@H](CCCCN)C(=O)N[C@@H](CCCCN)C(=O)N[C@@H](CCCNC(=N)N)C(=O)NCC(=O)O cannot be ordered by Ki: greater than 100 nM for the first, greater than 100 nM for the second.

C[C@H](NC(=O)[C@H](CCCNC(=N)N)NC(=O)[C@@H]1CCCN1C(=O)[C@@H](N)[C@@H](C)O)C(=O)N[C@@H](CCCNC(=N)N)C(=O)N[C@@H](CCCNC(=N)N)C(=O)N[C@@H](CCCNC(=N)N)C(=O)N[C@@H](CCCCN)C(=O)N[C@@H](CCCCN)C(=O)N[C@@H](CCCNC(=N)N)C(=O)N[C@@H](CS)C(=O)O and C[C@H](NC(=O)[C@H](CCCNC(=N)N)NC(=O)[C@H](CCC(N)=O)NC(=O)[C@@H]1CCCN1C(=O)[C@@H](N)[C@@H](C)O)C(=O)N[C@@H](CCCNC(=N)N)C(=O)N[C@@H](CCCNC(=N)N)C(=O)N[C@@H](CCCNC(=N)N)C(=O)N[C@@H](CCCCN)C(=O)N[C@@H](CCCCN)C(=O)N[C@H](CCCNC(=N)N)C(=O)NCC(=O)O cannot be ordered by Ki: greater than 100 nM for the first, greater than 100 nM for the second.

C[C@@H](O)[C@H](N)C(=O)N1CCC[C@H]1C(=O)N[C@@H](CCC(N)=O)C(=O)N[C@@H](CCCNC(=N)N)C(=O)NCCCCCC(=O)N[C@@H](CCCNC(=N)N)C(=O)N[C@@H](CCCNC(=N)N)C(=O)N[C@@H](CCCNC(=N)N)C(=O)N[C@@H](CCCCN)C(=O)N[C@@H](CCCCN)C(=O)N[C@@H](CCCNC(=N)N)C(=O)NCC(=O)O and C[C@@H](O)[C@H](N)C(=O)N1CCC[C@H]1C(=O)N[C@@H](CCC(N)=O)C(=O)N[C@@H](CCCNC(=N)N)C(=O)N[C@@H](CS)C(=O)N[C@@H](CCCNC(=N)N)C(=O)N[C@@H](CCCNC(=N)N)C(=O)N[C@@H](CCCNC(=N)N)C(=O)N[C@@H](CCCCN)C(=O)N[C@@H](CCCCN)C(=O)N[C@@H](CCCNC(=N)N)C(=O)NCC(=O)O cannot be ordered by Ki: greater than 100 nM for the first, greater than 100 nM for the second.

C[C@@H](O)[C@H](N)C(=O)N1CCC[C@H]1C(=O)N[C@@H](CCCN=C(N)N)C(=O)N[C@@H](CCCNC(N)=O)C(=O)N[C@@H](CCCN=C(N)N)C(=O)N[C@@H](CCCN=C(N)N)C(=O)N[C@@H](CCCN=C(N)N)C(=O)N[C@@H](CCCCN)C(=O)N[C@@H](CCCCN)C(=O)N[C@@H](CCCN=C(N)N)C(=O)NCC(=O)O and C[C@@H](O)[C@H](N)C(=O)N1CCC[C@H]1C(=O)N[C@@H](CCCN=C(N)N)C(=O)N[C@@H](CCCCN)C(=O)N[C@@H](CCCN=C(N)N)C(=O)N[C@@H](CCCN=C(N)N)C(=O)N[C@@H](CCCN=C(N)N)C(=O)N[C@@H](CCCCN)C(=O)N[C@@H](CCCCN)C(=O)N[C@@H](CCCN=C(N)N)C(=O)NCC(=O)O cannot be ordered by Ki: greater than 100 nM for the first, greater than 100 nM for the second.

C[C@@H](O)[C@H](N)C(=O)N1CCC[C@H]1C(=O)N[C@@H](CCCN=C(N)N)C(=O)NC1(C(=O)N[C@@H](CCCN=C(N)N)C(=O)N[C@@H](CCCN=C(N)N)C(=O)N[C@@H](CCCN=C(N)N)C(=O)N[C@@H](CCCCN)C(=O)N[C@@H](CCCCN)C(=O)N[C@@H](CCCN=C(N)N)C(=O)NCC(=O)O)CCCC1 and C[C@@H](O)[C@H](N)C(=O)N1CCC[C@H]1C(=O)N[C@@H](CCC(N)=O)C(=O)N[C@@H](CCCN=C(N)N)C(=O)NC1(C(=O)N[C@@H](CCCN=C(N)N)C(=O)N[C@@H](CCCN=C(N)N)C(=O)N[C@@H](CCCN=C(N)N)C(=O)N[C@@H](CCCCN)C(=O)N[C@@H](CCCCN)C(=O)N[C@@H](CCCNC(=N)N)C(=O)NCC(=O)O)CCCC1 cannot be ordered by Ki: greater than 100 nM for the first, greater than 100 nM for the second.

C[C@@H](O)[C@H](N)C(=O)N1CCC[C@H]1C(=O)N[C@@H](CCC(N)=O)C(=O)N[C@@H](CCCN=C(N)N)C(=O)N[C@@H](CCCN=C(N)N)C(=O)N[C@@H](CCCN=C(N)N)C(=O)N[C@@H](CCCN=C(N)N)C(=O)N[C@@H](CCCN=C(N)N)C(=O)N[C@@H](CCCCN)C(=O)N[C@@H](CCCCN)C(=O)N[C@@H](CCCNC(=N)N)C(=O)NCC(=O)O and C[C@@H](O)[C@H](N)C(=O)N1CCC[C@H]1C(=O)N[C@@H](CCC(N)=O)C(=O)N[C@@H](CCCN=C(N)N)C(=O)N[C@H](CCCN=C(N)N)C(=O)N[C@@H](CCCN=C(N)N)C(=O)N[C@@H](CCCN=C(N)N)C(=O)N[C@@H](CCCN=C(N)N)C(=O)N[C@@H](CCCCN)C(=O)N[C@@H](CCCCN)C(=O)N[C@@H](CCCNC(=N)N)C(=O)NCC(=O)O cannot be ordered by Ki: greater than 100 nM for the first, greater than 100 nM for the second.

C[C@@H](O)[C@H](N)C(=O)N1CCC[C@H]1C(=O)N[C@@H](CCCNC(=N)N)C(=O)N[C@H](CCCCN)C(=O)N[C@@H](CCCNC(=N)N)C(=O)N[C@@H](CCCNC(=N)N)C(=O)N[C@@H](CCCNC(=N)N)C(=O)N[C@@H](CCCCN)C(=O)N[C@@H](CCCCN)C(=O)N[C@@H](CCCNC(=N)N)C(=O)NCC(=O)O and C[C@H](NC(=O)[C@H](CCCNC(=N)N)NC(=O)[C@H](CCC(N)=O)NC(=O)[C@@H]1CCCN1C(=O)[C@@H](N)[C@@H](C)O)C(=O)N[C@@H](CCCNC(=N)N)C(=O)N[C@@H](CCCNC(=N)N)C(=O)N[C@@H](CCCNC(=N)N)C(=O)N[C@@H](CCCCN)C(=O)N[C@@H](CCCCN)C(=O)N[C@H](CCCCN)C(=O)NCC(=O)O cannot be ordered by Ki: greater than 100 nM for the first, greater than 100 nM for the second.

C[C@@H](O)[C@H](N)C(=O)N1CCC[C@H]1C(=O)N[C@@H](CCC(N)=O)C(=O)N[C@@H](CCCN=C(N)N)C(=O)N[C@@H](CCCCN)C(=O)N[C@@H](CCCN=C(N)N)C(=O)N[C@@H](CCCN=C(N)N)C(=O)N[C@@H](CCCN=C(N)N)C(=O)N[C@@H](CCCCN)C(=O)N[C@@H](CCCCN)C(=O)N[C@@H](CCCNC(=N)N)C(=O)NCC(=O)O and C[C@H](NC(=O)[C@H](CCCN=C(N)N)NC(=O)[C@H](CCC(N)=O)NC(=O)[C@@H]1CCCN1C(=O)[C@@H](N)[C@@H](C)O)C(=O)N[C@@H](CCCN=C(N)N)C(=O)N[C@@H](CCCN=C(N)N)C(=O)N[C@@H](CCCN=C(N)N)C(=O)N[C@@H](CCCCN)C(=O)N[C@@H](CCCCN)C(=O)N[C@@H](CCCNC(N)=O)C(=O)NCC(=O)O cannot be ordered by Ki: greater than 100 nM for the first, greater than 100 nM for the second.

With CC(C)C[C@H](NC(=O)[C@H](CCCNC(=N)N)NC(=O)[C@H](CCC(N)=O)NC(=O)[C@@H]1CCCN1C(=O)[C@@H](N)[C@@H](C)O)C(=O)N[C@@H](CCCNC(=N)N)C(=O)N[C@@H](CCCNC(=N)N)C(=O)N[C@@H](CCCNC(=N)N)C(=O)N[C@@H](CCCCN)C(=O)N[C@@H](CCCCN)C(=O)N[C@@H](CCCNC(=N)N)C(=O)NCC(=O)O the Ki was greater than 100 nM.
